In paper PMC7432809, “Antimicrobial Activity of Small Synthetic Peptides Based on the Marine Peptide Turgencin A: Prediction of Antimicrobial Peptide Sequences in a Natural Peptide and Strategy for Optimization of Potency” (International Journal of Molecular Sciences, 2020):
Values after ≈ are worked out from the molar mass of the structure shown. Where no end group is shown, it is not given here.

Columns and labels:
Assay in all cases: microbe, parasite or virus in culture
Assay type in all cases: cell-based
[1] = system: Escherichia coli (ATCC 25922)
Protocol: (§1) Two strains of G- bacteria, P. aeruginosa (Pa, ATCC 27853) and E. coli (Ec, ATCC 25922), were also used. Cultures stored at -80 °C in glycerol were transferred to Müller–Hinton plates (MH, Difco Laboratories, Detroit, MI, USA) and incubated for 24 h at 35 °C. Colonies of each strain were transferred to 5 mL liquid MH medium and left shaking (600 rpm) at room temperature overnight. An aliquot of actively growing bacteria (20 µL) was inoculated in 5 mL MH medium and left shaking for 2 h at room temperature. In order to have a sensitive bioassay, the bacterial cultures were diluted with medium to only 2.5–3 × 10^4 bacteria/mL and an aliquot of 50 µL was added to each well in 96 microwell plates (Thermo Fisher Scientific, Roskilde, Denmark) preloaded with peptide solution (50 µL). The antibacterial assays were performed as previously described. The microtiter plates were incubated for 24 h at 35 °C with optical density (595 nm) recorded every hour using an Envision 2103 multilabel reader, controlled by a Wallac Envision manager (PerkinElmer, Waltham, MA, USA). The minimum inhibitory concentration (MIC) was defined as the sample concentration showing an optical density less than 10% of the negative (growth) control, consisting of bacteria and MQ-H2O. Oxytetracycline (concentrations ranging from 20–0.02 µg/mL, Sigma-Aldrich) and indolicidin (concentration ranging from 200–0.2 µg/mL, Sigma-Aldrich) served as a positive (inhibition) control. The synthetic peptides were tested for antibacterial activity in concentrations ranging from 250 to 0.5 µg/mL in two-fold dilutions. All tests were performed in triplicates.

[2] = system: Pseudomonas aeruginosa (ATCC 27853)
Protocol: as §1

Rhodotorula sp. = system: Rhodotorula sp.
Protocol: (§2) StAMP-1–11 were screened for antifungal activity against C. albicans (Ca, ATCC 10231), A. pullulans (Ap) and Rhodotorula sp. (Rh) (the last two were obtained from professor Arne Tronsmo, The Norwegian University of Life Sciences, Ås, Norway). The antifungal assay was performed as previously described with a few modifications. Briefly, fungal spores were dissolved in potato dextrose broth (Difco Laboratories) with 2% D(+)-glucose (Merck, Darmstadt, Germany) to a concentration of 4 × 10^5 spores/mL. The spores (50 µL) were inoculated on 96 microwell plates (Thermo Fisher Scientific) containing the synthetic peptides (50 µL) and controls (water or antibiotic). The peptides were diluted in MQ-H2O at final concentrations ranging from 250–3.9 µg/mL in two-fold serial dilutions. Triclosan (Sigma-Aldrich, Steinheim, Germany) was used as a positive (antifungal) control (32–0.25 µg/mL), and MQ-H2O as a negative (growth) control. Cultures were grown in room temperature for 24 h (Ca) and 48 h (Ap and Rh). Growth inhibition was determined by measuring OD values at 600 nm by a microplate reader (Synergy H1 Hybrid Multi-Mode Reader, BioTek, Winooski, VT, USA). […] All experiments were done in triplicate.

[3] = system: Candida albicans (ATCC 10231)
Protocol: as §2

Aureobasidium pullulans = system: Aureobasidium pullulans
Protocol: as §2

[4] = system: Bacillus subtilis (ATCC 23857)
Protocol: (§3) The synthesized peptides were screened for antibacterial activity against five strains of G+ bacteria: B. subtilis (Bs, ATCC 23857), C. glutamicum (Cg, ATCC 13032), S. aureus (Sa, ATCC 9144), Micrococcus luteus (Ml), B. megaterium (Bm) (the last two were obtained from professor Olaf B. Styrvold, UiT The Arctic University of Norway).
as §1

Bacillus megaterium = system: Bacillus megaterium
Protocol: as §3, §1

[5] = system: Staphylococcus aureus (ATCC 9144)
Protocol: as §3, §1

Micrococcus luteus = system: Micrococcus luteus
Protocol: as §3, §1

[6] = system: Corynebacterium glutamicum (ATCC 13032)
Protocol: as §3, §1

[7] = potato dextrose broth with 2% glucose, room temperature 48 h, OD 600 nm, >90% inhibition, triplicate

Compound	Antimicrobial Activity (MIC) Ec ([1]; ATCC 25922, 24 h) [µg/mL]	Antimicrobial Activity (MIC) Pa ([2]; ATCC 27853, 24 h) [µg/mL]	Antimicrobial Activity (MIC) Rh (Rhodotorula sp.; 48 h) [µg/mL]	Antimicrobial Activity (MIC) Ca ([3]; ATCC 10231, 24 h) [µg/mL]	Antimicrobial Activity (MIC) Ap (Aureobasidium pullulans; 48 h) [µg/mL]	Antimicrobial Activity (MIC) Bs ([4]; ATCC 23857, 24 h) [µg/mL]	Antimicrobial Activity (MIC) Bm (Bacillus megaterium; Bacillus, 24 h) [µg/mL]	Antimicrobial Activity (MIC) Sa ([5]; ATCC 9144, 24 h) [µg/mL]	Antimicrobial Activity (MIC) Ml (Micrococcus luteus; 24 h) [µg/mL]	Antimicrobial Activity (MIC) Cg ([6]; ATCC 13032, 24 h) [µg/mL]	also measured
GKKPGWWKAK-NH2 [StAMP-4]	>250	>250	31.3	62.5	62.5	125	3.9	>250	125	3.9	–
GKKPWGWKAK-NH2 [StAMP-3]	>250	>250	62.5	125	62.5	>250	3.9	>250	250	15.6	–
CC[C@H](C)[C@H](N)C(=O)N[C@@H](CC(C)C)C(=O)N1CCC[C@H]1C(=O)N[C@@H](Cc1c[nH]c2ccccc12)C(=O)N[C@@H](CCCCN)C(=O)N[C@@H](Cc1c[nH]c2ccccc12)C(=O)N1CCC[C@H]1C(=O)N[C@@H](Cc1c[nH]c2ccccc12)C(=O)N[C@@H](Cc1c[nH]c2ccccc12)C(=O)N1CCC[C@H]1C(=O)N[C@@H](Cc1c[nH]c2ccccc12)C(=O)N[C@@H](CCCNC(=N)N)C(=O)N[C@@H](CCCNC(=N)N)C(N)=O [Indolicidin, reference compound]	–	–	–	–	–	–	–	–	–	–	Antimicrobial Activity (MIC) Ec ([1]; Escherichia coli, MH medium, 24 h at 35 °C, OD 595 nm <10% of growth control, triplicates): 25.0 µg/mL; Antimicrobial Activity (MIC) Pa ([2]; Pseudomonas aeruginosa, MH medium, 24 h at 35 °C, OD 595 nm <10% of growth control, triplicates): >250 µg/mL; Antimicrobial Activity (MIC) Rh (Rhodotorula sp.; [7]): 25.0 µg/mL; Antimicrobial Activity (MIC) Ca ([3]; potato dextrose broth with 2% glucose, room temperature 24 h, OD 600 nm, >90% inhibition, triplicate): 100 µg/mL; Antimicrobial Activity (MIC) Ap (Aureobasidium pullulans; [7]): 25.0 µg/mL; Antimicrobial Activity (MIC) Bs ([4]; Bacillus subtilis, MH medium, 24 h at 35 °C, OD 595 nm <10% of growth control, triplicates): 6.3 µg/mL; Antimicrobial Activity (MIC) Bm (Bacillus megaterium; Bacillus megaterium, MH medium, 24 h at 35 °C, OD 595 nm <10% of growth control, triplicates): 3.1 µg/mL; Antimicrobial Activity (MIC) Sa ([5]; Staphylococcus aureus, MH medium, 24 h at 35 °C, OD 595 nm <10% of growth control, triplicates): 12.5 µg/mL; Antimicrobial Activity (MIC) Ml (Micrococcus luteus; Micrococcus luteus, MH medium, 24 h at 35 °C, OD 595 nm <10% of growth control, triplicates): 12.5 µg/mL; Antimicrobial Activity (MIC) Cg ([6]; Corynebacterium glutamicum, MH medium, 24 h at 35 °C, OD 595 nm <10% of growth control, triplicates): 1.6 µg/mL
GKKWGGWKAK-NH2 [StAMP-2]	>250	>250	62.5	125	62.5	125	3.9	>250	250	31.3	–
Oc1cc(Cl)ccc1Oc1ccc(Cl)cc1Cl [Triclosan, reference compound]	–	–	–	–	–	–	–	–	–	–	MIC (Rhodotorula sp.; Rhodotorula, 48 h, read-out: Antimicrobial Activity (MIC) Rh): 1.6 µg/mL; MIC ([3]; Candida albicans, ATCC10231, 24 h, read-out: Antimicrobial Activity (MIC) Ca): 3.1 µg/mL; MIC (Aureobasidium pullulans; Aureobasidium pullulans, 48 h, read-out: Antimicrobial Activity (MIC) Ap): 3.1 µg/mL
GRRWWWWRAR-NH2 [StAMP-10]	15.6	31.3	15.6	62.5	62.5	7.8	3.9	62.5	15.6	7.8	–
GKKWWGWKAK-NH2 [StAMP-5]	31.3	250	15.6	31.3	31.3	15.6	1.0	>250	15.6	2.0	–
CN(C)[C@@H]1C(O)=C(C(N)=O)C(=O)[C@@]2(O)C(O)=C3C(=O)c4c(O)cccc4[C@@](C)(O)[C@H]3[C@H](O)[C@@H]12 [Oxytetracycline, reference compound]	–	–	–	–	–	–	–	–	–	–	MIC ([1]; ATCC25922, Escherichia coli, MH medium, 24 h at 35 °C, OD 595 nm <10% of growth control, triplicates, read-out: Antimicrobial Activity (MIC) Ec): 1.3 µg/mL (≈ 2.82 µM); MIC ([2]; ATCC27853, Pseudomonas aeruginosa, MH medium, 24 h at 35 °C, OD 595 nm <10% of growth control, triplicates, read-out: Antimicrobial Activity (MIC) Pa): 2.5 µg/mL (≈ 5.43 µM); MIC ([4]; ATCC23857, Bacillus subtilis, MH medium, 24 h at 35 °C, OD 595 nm <10% of growth control, triplicates, read-out: Antimicrobial Activity (MIC) Bs): 10 µg/mL (≈ 21.7 µM); MIC (Bacillus megaterium; Priestia megaterium, Bacillus megaterium, MH medium, 24 h at 35 °C, OD 595 nm <10% of growth control, triplicates, read-out: Antimicrobial Activity (MIC) Bm): 0.6 µg/mL (≈ 1.3 µM); MIC ([5]; ATCC9144, Staphylococcus aureus, MH medium, 24 h at 35 °C, OD 595 nm <10% of growth control, triplicates, read-out: Antimicrobial Activity (MIC) Sa): 0.04 µg/mL (≈ 0.0869 µM); MIC (Micrococcus luteus; Micrococcus luteus, MH medium, 24 h at 35 °C, OD 595 nm <10% of growth control, triplicates, read-out: Antimicrobial Activity (MIC) Ml): 1.3 µg/mL (≈ 2.82 µM); MIC ([6]; ATCC13032, Corynebacterium glutamicum, MH medium, 24 h at 35 °C, OD 595 nm <10% of growth control, triplicates, read-out: Antimicrobial Activity (MIC) Cg): 0.2 µg/mL (≈ 0.434 µM)
GKKPGGWKAK-NH2 [StAMP-1]	>250	>250	>250	>250	>250	>250	250	>250	>250	250	–
GRRPLLLRAR-NH2 [StAMP-11]	>250	>250	31.3	125	250	>250	7.8	>250	62.5	31.3	–
GKKWGWWKAK-NH2 [StAMP-6]	62.5	>250	31.3	62.5	62.5	3.9	1.0	250	62.5	3.9	–
